In patent US20230174538A1, “Tricyclic heterocycles” (Merck Patent GmbH, priority 2020, published 2023):

Legend:
Assay type in all cases: cell-based
SW620 Yap KO cells = test: Viability assay in SW620 Yap KO (Yap independent) cells, CyQUANT; conditions: Homo sapiens, SW-620
Experimental: (§1) Viability Assay in NCI-H226 (Yap-Dependent) and SW620 Yap KO (Yap Independent) Cells
(§2) The ability of YAP-TEAD inhibitors to inhibit tumor cell growth was evaluated using two different cell lines: NCI-H226, which is a YAP dependent cell line, and SW620 cells, where YAP and TAZ were knocked out using CRISPR to generate a YAP independent cell line.
(§3) For the assay, cells were treated in duplicates with the test compounds in a 10-point dose, 1:3 dilution steps, with the top concentration starting at 30 μM (final concentration in assay). After a 96 hour incubation at 37° C., 95% rH, and 5% CO2, a cell-permeant DNA-binding dye that stains only healthy cells (CyQUANT®, Promega) was added to the cells, allowing the quantification of cell viability.
(§4) Cell Media: The NCI-H226 cells were cultured in the following media: RPMI 1640, +10% FBS, +1× GlutaMAX, +10 mM HEPES, +0.5% Pen/Strep. The SW620-KO cells were cultured in the following media: DMEM/F-12, +10% FBS, +1× GlutaMAX, +10 mM HEPES, +0.5% Pen/Strep.
(§5) Reagents: The reagents used are listed below:
(§6) Cell culture: The cells were examined using an inverted microscope to check for health, cell density, etc. To dissociate adherent cells, the monolayer of cells was washed once with pre-warmed PBS. After removing the PBS, 3 ml pre-warmed Accutase was added to a F75 flask, dispersed evenly and the flask was allowed to sit in incubator for ˜4-5 minutes.
(§7) When a single cell suspension was obtained, 7 ml of prewarmed growth media was added and resuspended with the cells. The cell suspension was transferred to a sterile 15 ml conical centrifuge tube, and spun for 5 min at 300×g, RT. The supernatant was discarded and the pellet was resuspended in 10 ml of pre-warmed growth media.
(§8) The total cell count was determined, and 20 μl of the desired cell number was added to each well of a 384 well plate using a Multidrop Combi. The plates were then incubated for 24 hours at 37° C., 95% rH, and 5% CO2.
(§9) Compound treatment: 24 hours after seeding, the cells were treated with compounds.
(§10) A 1:333 dilution of compounds, diluted in DMSO, was made to get a final concentration of 0.3% DMSO per well. To transfer the compounds to the assay plate, 120 nl was shot from Labcyte low dead volume plates to the cell plates containing 20 μl media/well with the ECHO 555 liquid handling system.
(§11) After treatment, the cells were fed with 20 μl fresh pre-warmed assay media using a Multidrop combi.
(§12) The assay plates were then incubated for 96 h at 37° C., 95% rH, and 5% CO2.
(§13) 96 h after treatment 30 μl of CyQuant® reagent was added to the assay plates using a Multidrop combi in the dark. The plates were then incubated for 1 hour at 37° C., 95% rH and 5% CO2. Thereafter, the assay plates were removed from the incubator and allowed to equilibrate to RT for 30 min in the dark without lid. Finally, they were measured using an EnVision microplate reader with a FITC bottom read program.

NCI-H226 cells = test: Viability assay in NCI-H226 (Yap-dependent) cells, CyQUANT; conditions: Homo sapiens
Experimental: as §1, §2, §3, §4, §5, §6, §7, §8, §9, §10, §11, §12, §13

YAP-TEAD interaction = test: SK-HEP-1 reporter assay (8xTEAD responsive elements driving NanoLuc luciferase); conditions: Homo sapiens, SK-HEP1, SK-HEP-1 reporter assay
In short: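 Luminescence after NanoGlo addition gave reporter activity, and IC50 values came from duplicate 10-point curves (top final concentration 30 μM, 0.3% DMSO). The cells were SK-HEP-1 with a stably integrated 8×TEAD-driven NanoLuc gene, exposed to compound for 24 h at 37 °C.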

Compound	IC50 (SW620 Yap KO cells) [nM]	IC50 (NCI-H226 cells) [nM]	IC50 (YAP-TEAD interaction) [nM]
Cn1cc2c3cc(C(=O)O)ccc3n(Cc3ccccc3)c2n1 [Example 12, 8-(Benzyl)-2-methyl-2H,8H-pyrazolo[3,4-b]indole-5-carboxylic acid]	> 30000	100 to 1000	10 to 100
Cn1cc2c(n1)c1cc(F)ccc1n2-c1ccc(C(F)(F)F)cc1 [Example 26, 7-fluoro-2-methyl-4-[4-(trifluoromethyl)phenyl]pyrazolo[4,3-b]indole]	10000 to 30000	> 10000	10 to 100
COc1ccc(-n2c3ccc(C(=O)O)cc3c3cn(C)nc32)cc1 [Example 14, 8-(4-methoxyphenyl)-2-methyl-2H,8H-pyrazolo[3,4-b]indole-5-carboxylic acid]	> 30000	100 to 1000	10 to 100
Cn1cc2c3cc(C(=O)O)ccc3n(-c3ccc(C4CCCC4)cc3)c2n1 [Example 22, 8-(4-cyclopentylphenyl)-2-methyl-2H,8H-pyrazolo [3,4-b]indole-5-carboxylic acid]	> 30000	100 to 1000	10 to 100
CSc1ccc2c(c1)c1cn(C)nc1n2-c1ccc(C)cc1 [Example 31, 2-methyl-8-(4-methylphenyl)-5-(methylsulfanyl)-2H,8H-pyrazolo[3,4-b]indole]	> 30000	> 10000	10 to 100
CCn1cc(C(O)CNC(=O)c2ccc3c(c2)c2cn(C)nc2n3-c2ccc(C(F)(F)F)cc2)cn1 (stereo not shown) [Example B36, N-[2-(1-ethyl-1H-pyrazol-4-yl)-2-hydroxyethyl]-2-methyl-8-[4-(trifluoromethyl)phenyl]-2H,8H-pyrazolo[3,4-b]indole-5-carboxamide]	> 30000	1 to 100	10 to 100
Cn1cc2c3cc(C(=O)O)ccc3n(-c3ccc(OC(F)(F)F)cc3)c2n1 [Example 18, 2-methyl-8-[4-(trifluoromethoxy)phenyl]-2H,8H-pyrazolo[3,4-b]indole-5-carboxylic acid]	> 30000	100 to 1000	1 to 10
Cn1cc2c3cc(C(=O)NCc4n[nH]cc4C4CC4)ccc3n(-c3ccc(C(F)(F)F)cc3)c2n1 [Example B22, N-[(4-cyclopropyl-1H-pyrazol-3-yl)methyl]-2-methyl-8-[4-(trifluoromethyl)phenyl]-2H,8H-pyrazolo[3,4-b]indole-5-carboxamide]	> 30000	1 to 100	10 to 100
CN(C)S(=N)(=O)c1ccc2c(c1)c1nn(C)cc1n2-c1ccc(C(F)(F)F)cc1 (stereo not shown) [Example 36, N,N,2-Trimethyl-4-[4-(trifluoromethyl)phenyl]-2H,4H-pyrazolo[4,3-b]indole-7-sulfonoimidamide]	> 30000	1 to 100	1 to 10
Cc1ccc(-n2c3ccc(C(=O)O)cc3c3cn(C)nc32)cc1 [Example 9, 2-Methyl-8-(4-methylphenyl)-2H,8H-pyrazolo[3,4-b]indole-5-carboxylic acid]	10000 to 30000	1 to 100	
Cn1cc2c(n1)c1cc(S(N)(=O)=O)ccc1n2-c1ccc(C(F)(F)F)cc1 [Example 34, 2-methyl-4-[4-(trifluoromethyl)phenyl]-2H,4H-pyrazolo[4,3-b]indole-7-sulfonamide]	> 30000	> 10000	10 to 100
Cn1cc2c3cc(C(=O)O)ccc3n(-c3cccc(C(F)(F)F)c3)c2n1 [Example 6, 2-Methyl-8-[3-(trifluoromethyl)phenyl]-2H,8H-pyrazolo[3,4-b]indole-5-carboxylic acid]	> 30000	100 to 1000	10 to 100
COCC(NC(=O)c1ccc2c(c1)c1cn(C)nc1n2-c1ccc(C(F)(F)F)cc1)c1cnn(C)c1 (stereo not shown) [Example B68, N-[2-methoxy-1-(1-methyl-1H-pyrazol-4-yl)ethyl]-2-methyl-8-[4-(trifluoromethyl)phenyl]-2H,8H-pyrazolo[3,4-b]indole-5-carboxamide]	> 30000	100 to 1000	10 to 100
Cn1cc2c3cc(C(=O)O)ccc3n(-c3ccc(F)cc3)c2n1 [Example 10, 8-(4-fluorophenyl)-2-methyl-2H,8H-pyrazolo[3,4-b]indole-5-carboxylic acid]	> 30000	100 to 1000	10 to 100
Cn1cc2c3cc(C(=O)O)ccc3n(Cc3ccc(C(F)(F)F)cc3)c2n1 [Example 5, 2-Methyl-8-{[4-(trifluoromethyl)phenyl]methyl}-2H,8H-pyrazolo[3,4-b]indole-5-carboxylic acid]	> 30000	1 to 100	10 to 100
Cn1cc2c(n1)c1cc([S+](C)[O-])ccc1n2-c1ccc(C(F)(F)F)cc1 (stereo not shown) [Example 32, 7-methanesulfinyl-2-methyl-4-[4-(trifluoromethyl)phenyl]-2H,4H-pyrazolo[4,3-b]indole]		> 10000	100 to 10000
CNC(=O)c1ccc2c(c1)c1nn(C)cc1n2-c1ccc(C(F)(F)F)cc1 [Example 17, N,2-dimethyl-4-[4-(trifluoromethyl)phenyl]pyrazolo [4,3-b]indole-7-carboxamide]	> 30000	100 to 1000	10 to 100
CCCn1ncc(CNC(=O)c2ccc3c(c2)c2cn(C)nc2n3-c2ccc(C(F)(F)F)cc2)c1C [B123^]		100 to 1000	10 to 100
Cn1cc2c3cc(C(=O)NC45CC4COC5(C)C)ccc3n(-c3ccc(C(F)(F)F)cc3)c2n1 (stereo not shown) [Example B73, N-(2,2-dimethyl-3-oxabicyclo[3.1.0]hexan-1-yl}-2-methyl-8-[4-(trifluoromethyl)phenyl]-2H,8H-pyrazolo[3,4-b]indole-5-carboxamide]			100 to 10000
Cn1cc2c3cc(C(=O)NC(CO)c4ccccn4)ccc3n(-c3ccc(C(F)(F)F)cc3)c2n1 (racemic) [Example 29, N-[2-hydroxy-1-(pyridin-2-yl)ethyl]-2-methyl-8-[4-(trifluoromethyl)phenyl]-2H,8H-pyrazolo[3,4-b]indole-5-carboxamide]			100 to 10000
Cn1cc2c3cc(C(=O)NC4CCCc5[nH]ccc54)ccc3n(-c3ccc(C(F)(F)F)cc3)c2n1 (stereo not shown) [Example B44, 2-methyl-N-(4,5,6,7-tetrahydro-1H-indol-4-yl)-8-[4-(trifluoromethyl)phenyl]-2H,8H-pyrazolo[3,4-b]indole-5-carboxamide]			100 to 10000
CC(NC(=O)c1ccc2c(c1)c1cn(C)nc1n2-c1ccc(C(F)(F)F)cc1)C(C)N1CCOCC1 (stereo not shown) [Example B61, 2-methyl-N-[3-(morpholin-4-yl)butan-2-yl]-8-[4-(trifluoromethyl)phenyl]-2H,8H-pyrazolo[3,4-b]indole-5-carboxamide]			100 to 10000
CC1CN(CCNC(=O)c2ccc3c(c2)c2cn(C)nc2n3-c2ccc(C(F)(F)F)cc2)CCO1 (stereo not shown) [Example B78, 2-methyl-N-[2-(2-methylmorpholin-4-yl)ethyl]-8-[4-(trifluoromethyl)phenyl]-2H,8H-pyrazolo[3,4-b]indole-5-carboxamide]			100 to 10000
Cn1cc2c3cc(C(=O)N4CC(CO)(n5cccn5)C4)ccc3n(-c3ccc(C(F)(F)F)cc3)c2n1 [B130^]			100 to 10000
Cn1cc2c3cc(C(=O)NCCc4cccc(F)n4)ccc3n(-c3ccc(C(F)(F)F)cc3)c2n1 [Example B84, N-[2-(6-fluoropyridin-2-yl)ethyl]-2-methyl-8-[4-(trifluoromethyl)phenyl]-2H,8H-pyrazolo[3,4-b]indole-5-carboxamide]			> 10000
CO[C@@H]1CCOC[C@H]1NC(=O)c1ccc2c(c1)c1cn(C)nc1n2-c1ccc(C(F)(F)F)cc1 [B131^]			100 to 10000
Cn1cc2c3cc(C(=O)NCCc4cc(O)n(C)n4)ccc3n(-c3ccc(C(F)(F)F)cc3)c2n1 [Example B38, N-[2-(5-hydroxy-1-methyl-1H-pyrazol-3-yl)ethyl]-2-methyl-8-[4-(trifluoromethyl)phenyl]-2H,8H-pyrazolo[3,4-b]indole-5-carboxamide]			> 10000
Cn1cc2c3cc(C(=O)NC4(c5nnc[nH]5)CC4)ccc3n(-c3ccc(C(F)(F)F)cc3)c2n1 [B134^]			100 to 10000
